Tested on: black cohosh plantlets
Assay: Rooting of black cohosh cultures and growth of the micropropagated plantlets in soil
Type: in vivo, Cimicifuga racemosa/Actaea racemose L.
Conditions: rooting 4 weeks, 60% shade
Experimental: All cultures described herein were transferred onto fresh media every 4 weeks. When indicated as such, the cultures were maintained in a plant tissue culture grade growth chamber under a 16-hour photoperiod (e.g. 16 hours of light per a 24 hour period) with a photo flux density of 37.6±4.8 μmol s^−1m^−2 light per day provided by cool white fluorescent tubes at 23±0.1° C., unless otherwise noted. As employed herein, MS supplemented base medium is at a pH of between about 5.4 and 5.8, supplemented with about 0.7% agar and about 3% sucrose, optionally with one or more plant growth regulators as disclosed herein. The pH of the medium is adjusted with a base, such as 1N KOH, and/or an acid, such as 1N HCl, before the agar is added. The supplemented medium is sterilized by autoclaving at about 120° C. and about 106 kPa for about 20 minutes. A first half of the cultures from Example 1B were moved to fresh MS supplemented base medium containing IBA (1.0 mg/1) and kept in a growth chamber under 16 hours light conditions per day for 4 weeks for rooting of the plantlets. See also the bottom row of FIG. 1, which refers to rooting for 4 weeks. […] A second half of the cultures from Example 1B were moved to fresh MS supplemented base medium containing NAA (0.1 mg/1) and kept in a growth chamber under 16 hours light conditions per day for 4 weeks for rooting of the plantlets. […]

O=C(O)CCCc1c[nH]c2ccccc12 [IBA, indole-3-butyric acid]
plantlet growth in soil after rooting (shoots proliferated in BA+NAA (Example 1B)): grew vigorously with normal morphology | plantlet growth in soil after rooting (shoots proliferated in kinetin+NAA (Example 1C)): grew vigorously
